Experimental findings from ChEMBL document CHEMBL4507319 (2021) are described below.

The target in experiment [1] is Cyclin-dependent kinase 2/cyclin A (Homo sapiens) (UniProt P24941+P20248+P78396). The experiment can be described thus: CDK2/cyclinA(h) Eurofins kinase panel. The format is protein-complex assay. As to conditions: Compound concentration 1.0 uM.
Experiment [2] deals with Cyclin-dependent kinase 2/cyclin E (Homo sapiens) (UniProt P24864+P24941+O96020). Nature of the experiment: CDK2/cyclinE(h) Eurofins kinase panel. The format is protein-complex assay. The settings on record: Compound concentration 1.0 uM.
The target in experiment [3] is Casein kinase I isoform gamma-2 (Homo sapiens) (UniProt P78368). Nature of the experiment: CK1gamma2(h) Eurofins kinase panel. The settings on record: Compound concentration 1.0 uM.
Experiment [4] has as its target T1, Tyrosine-protein kinase JAK3 (Homo sapiens) (UniProt P52333).
T1 sequence (whole entry): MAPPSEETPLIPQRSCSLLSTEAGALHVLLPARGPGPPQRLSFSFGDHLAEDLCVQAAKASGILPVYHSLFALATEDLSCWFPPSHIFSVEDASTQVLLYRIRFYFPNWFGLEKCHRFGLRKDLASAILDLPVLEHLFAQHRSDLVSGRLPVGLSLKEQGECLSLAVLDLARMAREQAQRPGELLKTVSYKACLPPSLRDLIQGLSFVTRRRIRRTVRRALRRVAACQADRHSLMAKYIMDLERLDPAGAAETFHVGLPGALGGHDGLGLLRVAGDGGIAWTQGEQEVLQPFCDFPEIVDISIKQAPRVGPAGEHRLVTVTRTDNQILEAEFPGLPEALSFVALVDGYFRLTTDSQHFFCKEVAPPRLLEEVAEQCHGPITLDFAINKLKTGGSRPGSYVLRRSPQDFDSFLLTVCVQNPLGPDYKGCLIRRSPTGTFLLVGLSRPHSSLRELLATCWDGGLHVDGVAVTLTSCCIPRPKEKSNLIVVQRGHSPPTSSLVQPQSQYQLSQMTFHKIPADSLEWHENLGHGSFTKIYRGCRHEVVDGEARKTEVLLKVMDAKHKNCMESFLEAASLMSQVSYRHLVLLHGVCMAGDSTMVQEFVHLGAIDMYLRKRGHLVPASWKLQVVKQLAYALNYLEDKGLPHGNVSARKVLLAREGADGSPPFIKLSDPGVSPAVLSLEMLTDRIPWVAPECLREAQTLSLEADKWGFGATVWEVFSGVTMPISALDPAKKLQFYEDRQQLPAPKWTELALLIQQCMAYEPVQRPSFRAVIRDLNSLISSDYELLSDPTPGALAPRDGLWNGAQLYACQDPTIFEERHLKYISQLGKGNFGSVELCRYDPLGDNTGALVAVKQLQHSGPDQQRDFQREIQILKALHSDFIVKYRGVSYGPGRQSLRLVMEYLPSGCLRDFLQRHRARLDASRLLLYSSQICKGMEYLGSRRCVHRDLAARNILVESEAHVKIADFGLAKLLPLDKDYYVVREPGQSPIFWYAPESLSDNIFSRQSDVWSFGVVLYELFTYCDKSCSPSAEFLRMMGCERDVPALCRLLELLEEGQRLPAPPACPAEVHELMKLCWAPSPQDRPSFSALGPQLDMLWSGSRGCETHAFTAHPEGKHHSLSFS
Nature of the experiment: JAK3(h) Eurofins kinase panel. The settings on record: Compound concentration 1.0 uM.

For experiment [5], the target named is T2, Serine/threonine-protein kinase MAK (Homo sapiens) (UniProt P20794).
T2 sequence (whole entry): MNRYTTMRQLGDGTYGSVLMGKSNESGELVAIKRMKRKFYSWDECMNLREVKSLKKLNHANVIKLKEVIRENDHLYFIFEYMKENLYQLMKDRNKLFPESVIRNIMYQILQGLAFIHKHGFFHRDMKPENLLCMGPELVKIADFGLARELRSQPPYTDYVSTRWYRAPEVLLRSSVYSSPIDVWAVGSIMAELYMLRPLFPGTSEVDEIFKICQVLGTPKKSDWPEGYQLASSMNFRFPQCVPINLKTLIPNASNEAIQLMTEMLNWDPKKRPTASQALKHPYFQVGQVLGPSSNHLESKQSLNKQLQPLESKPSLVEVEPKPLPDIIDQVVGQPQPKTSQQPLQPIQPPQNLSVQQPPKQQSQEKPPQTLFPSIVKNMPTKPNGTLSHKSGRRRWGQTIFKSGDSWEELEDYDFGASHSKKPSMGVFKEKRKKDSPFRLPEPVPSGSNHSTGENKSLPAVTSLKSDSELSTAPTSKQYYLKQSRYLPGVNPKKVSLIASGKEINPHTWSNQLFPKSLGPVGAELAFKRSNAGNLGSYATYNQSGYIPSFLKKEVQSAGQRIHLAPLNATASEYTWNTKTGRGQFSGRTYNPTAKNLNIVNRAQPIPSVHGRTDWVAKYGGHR
Nature of the experiment: MAK(h) Eurofins kinase panel. The settings on record: Compound concentration 1.0 uM.

In experiment [6] the target is Serine/threonine-protein kinase mTOR (Homo sapiens) (UniProt P42345). The experiment can be described thus: mTOR(h) Eurofins kinase panel. The settings on record: Compound concentration 1.0 uM.
Experiment [7] concerns the target Serine/threonine-protein kinase PAK 1 (Homo sapiens) (UniProt Q13153). The experiment can be described thus: PAK1(h) Eurofins kinase panel. The settings on record: Compound concentration 1.0 uM.
Experiment [8] deals with T3, Serine/threonine-protein kinase D1 (Homo sapiens) (UniProt Q15139).
T3 sequence (whole entry): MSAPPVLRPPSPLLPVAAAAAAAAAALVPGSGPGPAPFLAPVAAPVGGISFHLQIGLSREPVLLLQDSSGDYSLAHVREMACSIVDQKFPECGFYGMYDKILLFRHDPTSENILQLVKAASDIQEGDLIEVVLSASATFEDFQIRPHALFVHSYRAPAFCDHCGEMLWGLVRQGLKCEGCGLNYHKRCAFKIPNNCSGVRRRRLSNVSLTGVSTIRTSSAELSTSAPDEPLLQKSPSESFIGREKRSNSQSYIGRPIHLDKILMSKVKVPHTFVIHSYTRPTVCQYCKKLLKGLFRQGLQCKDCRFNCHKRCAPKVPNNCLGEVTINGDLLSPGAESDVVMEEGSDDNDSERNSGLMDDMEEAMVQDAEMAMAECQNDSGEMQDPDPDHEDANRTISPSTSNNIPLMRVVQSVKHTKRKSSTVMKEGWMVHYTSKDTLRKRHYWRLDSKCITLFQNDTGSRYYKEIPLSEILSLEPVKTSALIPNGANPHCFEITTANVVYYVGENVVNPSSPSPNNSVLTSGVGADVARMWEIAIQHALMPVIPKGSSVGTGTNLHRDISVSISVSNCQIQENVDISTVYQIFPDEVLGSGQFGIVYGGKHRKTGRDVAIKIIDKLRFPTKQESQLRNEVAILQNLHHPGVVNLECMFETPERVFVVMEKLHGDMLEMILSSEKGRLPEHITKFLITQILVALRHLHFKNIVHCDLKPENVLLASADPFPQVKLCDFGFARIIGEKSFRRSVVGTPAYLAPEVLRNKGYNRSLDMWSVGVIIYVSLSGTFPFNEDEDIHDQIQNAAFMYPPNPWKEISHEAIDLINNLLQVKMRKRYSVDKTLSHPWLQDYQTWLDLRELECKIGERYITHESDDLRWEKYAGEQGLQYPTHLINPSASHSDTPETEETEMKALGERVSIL
The experiment can be described thus: PKCmu (h) Eurofins kinase panel. The settings on record: Compound concentration 1.0 uM.

In experiment [9] the target is Non-receptor tyrosine-protein kinase TYK2 (Homo sapiens) (UniProt P29597). Nature of the experiment: TYK2(h) Eurofins kinase panel. The settings on record: Compound concentration 1.0 uM.
The next experiment concerns OPM-2. The experiment can be described thus: OPM-2 cell line Proliferation assay. The format is functional, Homo sapiens. As to conditions: time 3 day.
The next experiment relates to LNCaP C4-2B. Nature of the experiment: C4-2B cell line Proliferation assay. As to conditions: time 6 day. The format is functional, Homo sapiens.

Molecules are shown by their SMILES.

Casein kinase I isoform gamma-2 (Homo sapiens), sequence (P78368 whole entry, looked up, canonical isoform): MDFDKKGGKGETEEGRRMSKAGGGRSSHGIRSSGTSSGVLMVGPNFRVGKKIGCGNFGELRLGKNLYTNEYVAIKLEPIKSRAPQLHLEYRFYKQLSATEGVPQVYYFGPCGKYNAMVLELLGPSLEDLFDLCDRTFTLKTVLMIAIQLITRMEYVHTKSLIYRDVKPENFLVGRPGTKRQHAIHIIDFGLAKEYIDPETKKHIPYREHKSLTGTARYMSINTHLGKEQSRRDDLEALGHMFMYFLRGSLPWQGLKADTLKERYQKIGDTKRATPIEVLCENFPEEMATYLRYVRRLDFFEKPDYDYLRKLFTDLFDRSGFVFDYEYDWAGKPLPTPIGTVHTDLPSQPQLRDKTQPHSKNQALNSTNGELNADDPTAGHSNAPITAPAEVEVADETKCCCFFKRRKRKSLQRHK
Serine/threonine-protein kinase PAK 1 (Homo sapiens), sequence (Q13153 whole entry): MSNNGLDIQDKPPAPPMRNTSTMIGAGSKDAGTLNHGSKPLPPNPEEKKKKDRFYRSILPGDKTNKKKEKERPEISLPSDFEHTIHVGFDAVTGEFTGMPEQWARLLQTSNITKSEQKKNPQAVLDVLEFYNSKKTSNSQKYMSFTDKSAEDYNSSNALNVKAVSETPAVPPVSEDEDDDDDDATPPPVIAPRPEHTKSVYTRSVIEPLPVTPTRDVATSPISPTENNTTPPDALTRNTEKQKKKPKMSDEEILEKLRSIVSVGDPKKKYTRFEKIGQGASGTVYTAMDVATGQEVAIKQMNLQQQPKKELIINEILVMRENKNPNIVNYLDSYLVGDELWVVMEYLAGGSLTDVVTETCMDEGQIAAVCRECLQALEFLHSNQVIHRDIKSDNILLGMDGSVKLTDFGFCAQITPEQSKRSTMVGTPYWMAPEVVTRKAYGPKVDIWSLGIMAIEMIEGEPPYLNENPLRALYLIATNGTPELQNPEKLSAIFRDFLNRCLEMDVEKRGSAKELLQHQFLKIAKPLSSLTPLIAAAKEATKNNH
Non-receptor tyrosine-protein kinase TYK2 (Homo sapiens), sequence (P29597 whole entry): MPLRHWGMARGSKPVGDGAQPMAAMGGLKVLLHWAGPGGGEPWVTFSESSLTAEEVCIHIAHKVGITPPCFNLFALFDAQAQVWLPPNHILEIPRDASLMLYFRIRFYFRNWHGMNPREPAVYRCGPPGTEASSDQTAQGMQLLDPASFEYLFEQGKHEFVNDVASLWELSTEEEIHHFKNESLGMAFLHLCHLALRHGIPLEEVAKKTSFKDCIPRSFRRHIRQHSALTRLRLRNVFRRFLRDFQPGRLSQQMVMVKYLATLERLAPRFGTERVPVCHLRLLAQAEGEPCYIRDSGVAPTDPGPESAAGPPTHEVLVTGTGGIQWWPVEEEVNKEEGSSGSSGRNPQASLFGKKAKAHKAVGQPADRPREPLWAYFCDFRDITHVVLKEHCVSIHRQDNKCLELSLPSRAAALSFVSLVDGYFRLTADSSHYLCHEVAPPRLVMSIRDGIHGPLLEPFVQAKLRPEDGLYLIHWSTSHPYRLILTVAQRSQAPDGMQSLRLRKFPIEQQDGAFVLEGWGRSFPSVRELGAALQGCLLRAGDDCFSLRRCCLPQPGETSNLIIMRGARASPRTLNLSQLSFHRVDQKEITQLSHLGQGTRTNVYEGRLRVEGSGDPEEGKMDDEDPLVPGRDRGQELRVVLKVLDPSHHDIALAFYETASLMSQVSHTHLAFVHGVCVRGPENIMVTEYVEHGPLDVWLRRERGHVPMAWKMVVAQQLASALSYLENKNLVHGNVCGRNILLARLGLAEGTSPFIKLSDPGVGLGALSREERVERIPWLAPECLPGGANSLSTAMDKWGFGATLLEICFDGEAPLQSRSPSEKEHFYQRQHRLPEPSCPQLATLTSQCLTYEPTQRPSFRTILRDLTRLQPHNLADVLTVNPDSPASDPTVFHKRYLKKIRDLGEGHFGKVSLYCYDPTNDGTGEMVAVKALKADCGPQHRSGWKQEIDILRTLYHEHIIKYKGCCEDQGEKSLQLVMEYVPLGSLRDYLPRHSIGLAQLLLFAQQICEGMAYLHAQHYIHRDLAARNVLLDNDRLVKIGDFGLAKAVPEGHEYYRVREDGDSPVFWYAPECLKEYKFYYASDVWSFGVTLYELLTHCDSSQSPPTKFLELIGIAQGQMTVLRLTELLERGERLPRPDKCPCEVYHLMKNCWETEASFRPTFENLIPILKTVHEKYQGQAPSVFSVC

Consider `CCc1ccccc1C(=O)Nc1n[nH]c2c(C)c(F)c(C3C(C#N)=C(C)N(C)C(C)=C3C#N)cc12` [BAY-3827], for which the % residual kinase activity in [1] was 100%; in experiment [2], 92%; in [3], 98%; in [4] it was 93%; in [5], 95%; in experiment [6] it was 116%. For the same molecule, the results for the % residual kinase activity in experiment [7], in [8] and in experiment [9] were 94%, 96% and 87%, respectively. Moreover, the “Cell Proliferation IC50” value was 1.5 µM in the experiment with OPM-2 and over 10 µM in the experiment on LNCaP C4-2B.
